Molecular target: T1, SLC5A1 (Homo sapiens, UniProt P13866)
T1 sequence (P13866 1-664): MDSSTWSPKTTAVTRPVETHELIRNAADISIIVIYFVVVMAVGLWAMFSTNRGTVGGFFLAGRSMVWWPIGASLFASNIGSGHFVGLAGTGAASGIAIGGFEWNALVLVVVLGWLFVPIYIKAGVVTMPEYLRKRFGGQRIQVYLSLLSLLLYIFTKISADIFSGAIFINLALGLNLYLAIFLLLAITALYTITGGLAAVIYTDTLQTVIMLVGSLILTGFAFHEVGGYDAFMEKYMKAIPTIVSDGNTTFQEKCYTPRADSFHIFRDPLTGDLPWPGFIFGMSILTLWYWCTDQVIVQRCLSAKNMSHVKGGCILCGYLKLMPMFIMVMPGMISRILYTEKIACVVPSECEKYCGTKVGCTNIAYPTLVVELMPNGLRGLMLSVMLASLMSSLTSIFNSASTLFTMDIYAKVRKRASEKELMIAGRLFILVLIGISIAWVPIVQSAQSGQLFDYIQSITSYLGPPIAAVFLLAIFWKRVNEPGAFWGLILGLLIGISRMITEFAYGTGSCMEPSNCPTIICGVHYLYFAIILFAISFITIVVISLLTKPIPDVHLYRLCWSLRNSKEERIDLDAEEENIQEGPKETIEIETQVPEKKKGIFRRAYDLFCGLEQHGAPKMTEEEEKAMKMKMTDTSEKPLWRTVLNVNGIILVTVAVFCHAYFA
Assay: SPR
Type: binding

- Kd: 680 nM
Compound: CC(C)=CCC[C@](C)(O[C@@H]1O[C@H](CO)[C@@H](O)[C@H](O)[C@H]1O)[C@H]1CC[C@]2(C)[C@@H]1[C@H](O)C[C@@H]1[C@@]3(C)CC[C@H](O[C@@H]4O[C@H](CO)[C@@H](O)[C@H](O)[C@H]4O[C@@H]4O[C@H](CO)[C@@H](O)[C@H](O)[C@H]4O)C(C)(C)[C@@H]3CC[C@]12C [ginsenoside Rd]

From PMC9459060 (Journal of Ginseng Research, 2022)
